How the values were obtained:
PI3KA = PI3KA (Homo sapiens, UniProt P42336); experiment: Human kinase selectivity screening: PI3KA; format: biochemical; settings: read-out: PI3KA pIC50 values (converted)
Source text: (§1) These kinases were chosen for general selectivity screening owing to their broad representation of the human kinome.

ROCK1 = ROCK1 (Homo sapiens, UniProt Q13464); experiment: Human kinase selectivity screening: ROCK1; format: biochemical; settings: read-out: ROCK1 pIC50 values (converted)
Sequence of ROCK1 (Q13464 whole entry): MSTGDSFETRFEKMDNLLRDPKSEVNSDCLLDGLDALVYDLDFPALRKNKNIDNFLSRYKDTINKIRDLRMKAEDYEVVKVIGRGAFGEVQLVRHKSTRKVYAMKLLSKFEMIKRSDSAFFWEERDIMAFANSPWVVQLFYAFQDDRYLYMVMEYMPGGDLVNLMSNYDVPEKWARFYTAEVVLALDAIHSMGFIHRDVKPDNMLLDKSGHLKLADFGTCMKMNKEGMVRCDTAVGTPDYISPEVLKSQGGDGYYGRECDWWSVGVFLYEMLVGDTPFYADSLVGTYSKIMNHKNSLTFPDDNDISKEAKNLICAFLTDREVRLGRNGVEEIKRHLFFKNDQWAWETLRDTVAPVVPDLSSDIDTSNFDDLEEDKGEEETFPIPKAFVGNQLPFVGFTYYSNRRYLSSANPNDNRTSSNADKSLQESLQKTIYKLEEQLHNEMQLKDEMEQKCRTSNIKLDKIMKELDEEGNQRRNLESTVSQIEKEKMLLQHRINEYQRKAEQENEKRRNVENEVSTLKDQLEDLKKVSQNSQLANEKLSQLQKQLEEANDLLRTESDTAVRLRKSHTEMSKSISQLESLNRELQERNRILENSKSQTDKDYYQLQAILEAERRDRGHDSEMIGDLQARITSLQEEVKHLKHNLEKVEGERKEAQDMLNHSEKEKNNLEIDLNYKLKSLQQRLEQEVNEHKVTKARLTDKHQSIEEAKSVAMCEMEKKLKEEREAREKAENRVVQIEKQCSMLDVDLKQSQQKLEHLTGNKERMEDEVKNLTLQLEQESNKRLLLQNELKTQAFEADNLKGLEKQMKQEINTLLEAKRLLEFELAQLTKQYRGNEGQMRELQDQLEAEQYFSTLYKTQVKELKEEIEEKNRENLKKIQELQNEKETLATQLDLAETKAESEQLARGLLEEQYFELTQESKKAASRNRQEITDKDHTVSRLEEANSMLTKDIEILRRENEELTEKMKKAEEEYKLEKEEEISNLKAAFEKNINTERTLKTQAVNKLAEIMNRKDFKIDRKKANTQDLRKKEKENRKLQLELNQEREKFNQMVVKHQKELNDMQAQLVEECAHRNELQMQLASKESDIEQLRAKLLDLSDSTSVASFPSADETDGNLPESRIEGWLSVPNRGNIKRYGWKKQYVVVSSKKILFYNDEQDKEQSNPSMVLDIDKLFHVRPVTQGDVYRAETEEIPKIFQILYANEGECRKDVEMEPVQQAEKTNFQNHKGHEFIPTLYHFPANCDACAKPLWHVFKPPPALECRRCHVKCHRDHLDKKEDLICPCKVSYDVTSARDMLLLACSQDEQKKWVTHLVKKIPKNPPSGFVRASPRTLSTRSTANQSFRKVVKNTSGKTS
Source text: as §1

Sequence of PI3KA (P42336 whole entry): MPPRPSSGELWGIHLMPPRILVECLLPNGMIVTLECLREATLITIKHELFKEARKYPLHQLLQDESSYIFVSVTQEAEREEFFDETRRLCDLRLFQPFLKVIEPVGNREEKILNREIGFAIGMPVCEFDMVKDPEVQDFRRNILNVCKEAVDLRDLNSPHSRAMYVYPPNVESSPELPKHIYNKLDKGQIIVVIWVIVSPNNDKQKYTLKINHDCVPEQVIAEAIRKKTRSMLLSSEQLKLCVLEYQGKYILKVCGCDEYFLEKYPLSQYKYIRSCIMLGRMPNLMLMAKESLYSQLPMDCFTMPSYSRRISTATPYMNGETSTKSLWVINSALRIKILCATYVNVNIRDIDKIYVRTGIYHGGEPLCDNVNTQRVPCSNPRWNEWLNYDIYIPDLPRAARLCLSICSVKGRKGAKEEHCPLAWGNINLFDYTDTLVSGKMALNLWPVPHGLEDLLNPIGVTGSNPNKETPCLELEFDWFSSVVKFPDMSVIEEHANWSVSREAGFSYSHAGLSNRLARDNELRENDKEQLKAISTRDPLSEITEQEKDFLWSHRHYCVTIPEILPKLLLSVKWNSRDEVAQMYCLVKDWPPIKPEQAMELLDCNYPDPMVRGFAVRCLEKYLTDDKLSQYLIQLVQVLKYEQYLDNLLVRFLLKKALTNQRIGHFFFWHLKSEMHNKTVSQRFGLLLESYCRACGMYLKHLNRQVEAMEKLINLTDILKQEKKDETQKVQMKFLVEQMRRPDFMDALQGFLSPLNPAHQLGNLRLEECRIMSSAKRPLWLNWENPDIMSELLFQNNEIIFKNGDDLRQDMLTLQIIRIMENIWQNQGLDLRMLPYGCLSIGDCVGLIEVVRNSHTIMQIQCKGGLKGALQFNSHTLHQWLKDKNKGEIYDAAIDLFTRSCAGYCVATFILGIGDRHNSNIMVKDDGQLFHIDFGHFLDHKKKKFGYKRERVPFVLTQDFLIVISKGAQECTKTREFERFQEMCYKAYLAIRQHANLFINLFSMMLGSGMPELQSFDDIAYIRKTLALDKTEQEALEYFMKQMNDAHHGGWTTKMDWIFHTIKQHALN
Sequence of PI3KA (P27986 whole entry partner): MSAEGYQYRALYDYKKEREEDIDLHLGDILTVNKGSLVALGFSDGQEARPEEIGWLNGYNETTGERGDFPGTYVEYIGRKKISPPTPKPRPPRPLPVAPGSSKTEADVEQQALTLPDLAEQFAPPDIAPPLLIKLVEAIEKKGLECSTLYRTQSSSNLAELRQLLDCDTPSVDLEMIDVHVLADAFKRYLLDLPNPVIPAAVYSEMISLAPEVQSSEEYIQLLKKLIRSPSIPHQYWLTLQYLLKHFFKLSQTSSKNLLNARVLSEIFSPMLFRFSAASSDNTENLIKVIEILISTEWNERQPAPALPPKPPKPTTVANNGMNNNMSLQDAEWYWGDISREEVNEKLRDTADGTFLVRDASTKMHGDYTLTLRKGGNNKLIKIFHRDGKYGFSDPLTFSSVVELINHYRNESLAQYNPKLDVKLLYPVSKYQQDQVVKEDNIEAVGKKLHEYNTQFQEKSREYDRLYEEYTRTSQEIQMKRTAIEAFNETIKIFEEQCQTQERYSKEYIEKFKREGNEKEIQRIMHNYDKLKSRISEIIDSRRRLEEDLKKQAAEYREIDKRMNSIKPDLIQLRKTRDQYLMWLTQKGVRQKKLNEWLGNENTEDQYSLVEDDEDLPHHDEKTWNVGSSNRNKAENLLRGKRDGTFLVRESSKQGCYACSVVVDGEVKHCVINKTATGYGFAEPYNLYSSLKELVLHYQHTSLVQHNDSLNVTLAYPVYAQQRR

Row | Compound | IC50 (PI3KA) | IC50 (ROCK1)
1 | Cc1cc(Nc2cc(C3CC3)[nH]n2)nc(N2CCCCC2)n1 [NEU-0001127] | > 25.1 µM | 20 µM
2 | Cn1cc(-c2cnc3[nH]cc(-c4cccc(C#N)c4)c3c2)cn1 [NEU-0001207] | 3.98 µM | 0.794 µM
3 | O=C(Nc1ccc(-c2ccnc3[nH]ccc23)s1)C1(Cc2ccccc2)CCCNC1 (centres unmarked) [NEU-0001240] | > 25.1 µM | 0.00631 µM
4 | CCCNc1nc(Nc2cnn(C)c2)c2c(=O)[nH]ccc2n1 [NEU-0001187] | > 25.1 µM | 1.26 µM
5 | O=S1(=O)Cc2ccc(Nc3nccc(-c4ccc(F)cc4)n3)cc2C1 [NEU-0001142] | > 25.1 µM | > 25.1 µM
6 | CCCCc1nc(Nc2cccc(C)c2)c2c(=O)[nH]ccc2n1 [NEU-0001191] | > 25.1 µM | > 25.1 µM
7 | CN(C)Cc1ccc(-c2[nH]c3ncc(C#N)cc3c2-c2ccccc2)cc1 [NEU-0001206] | > 25.1 µM | 12.6 µM
